Active and inactive are the calls of the source. The calls are words filed in the database; no cut-off is given here.
Key:
[1] = Permeability of the compound incubated for 4 hrs by PAMPA-BBB assay based HPLC analysis
[2] = MRT (0 to t) in Sprague-Dawley rat at 60 mg/kg,po measured at 0.25 to 24 hrs post administration by LC-MS/MS analysis; type: ADME, organism-based; conditions: in vivo, time 0.25-24 hrs
[3] = Toxicity in ICR mouse assessed as pathological changes in kidney at 12.5 to 50 mg/kg,po administrated for 20 days by hematoxylin and eosin staining based microscopic analysis; type: organism-based; conditions: in vivo, 480 h, dose 12.5-50 mg/kg, time 20 day
Mus musculus [4] = assay: Antialzheimer activity against amyloid beta (25 to 35)-induced cognitive deficit ICR mouse model assessed as increase in preferential index at 25 mg/kg,po observed after 24 hrs of administration by novel object recognition test; type: functional, organism-based
HepG2 [5] = assay: Cytotoxicity against human HepG2 cells assessed as effect on survival at < 60 uM incubated for 24 hrs by MTT assay; type: toxicity, cell-based; conditions: hepg2, 24 h
PC-12 [6] = assay: Neuroprotective activity against amyloid beta (25 to 35)-induced rat PC12 cells assessed as decrease in TNF-alpha expression level at 7.5 to 30 uM preincubated for 30 mins followed by amyloid beta (25 to 35) addition and measured after 24 hrs by western blot assay; type: functional, cell-based; conditions: dose 7.5-30 µM, time 24.5 hrs
PC-12 [7] = assay: Cytotoxicity against rat PC12 cells assessed as decrease in cell viability at 120 uM incubated for 24 hrs by MTT assay; type: toxicity, cell-based; conditions: pc-12, 24 h
[8] = Half life in Sprague-Dawley rat at 60 mg/kg,po measured at 0.25 to 24 hrs post administration by LC-MS/MS analysis; type: ADME, organism-based; conditions: in vivo, time 0.25-24 hrs
N2a = assay: Cytotoxicity against mouse Neuro2a cells assessed as effect on survival at < 60 uM incubated for 24 hrs by MTT assay; type: toxicity, cell-based
Mus musculus [9] = assay: Antialzheimer activity against amyloid beta (25 to 35)-induced spatial memory deficit ICR mouse model assessed as increase in distance travelled in target quadrant at 50 mg/kg,po observed at 16 to 20 days of administration by morris water maze test; type: functional, organism-based; conditions: time 16-20 day
HUVEC [10] = assay: Cytotoxicity against human HUVEC cells assessed as decrease in cell viability at 120 uM incubated for 24 hrs by MTT assay; type: toxicity, cell-based
Mus musculus [11] = assay: Antialzheimer activity against amyloid beta (25 to 35)-induced cognitive deficit ICR mouse model assessed as increase in discrimination index at 50 mg/kg,po observed after 1 hr of administration by novel object recognition test; type: functional, organism-based
PC-12 [12] = assay: Neuroprotective activity against amyloid beta (25 to 35)-induced rat PC12 cells assessed as decrease in tau hyperphosphorylation at Thr181 at 7.5 to 30 uM preincubated for 30 mins followed by amyloid beta (25 to 35) addition and measured after 24 hrs by western blot assay; type: functional, cell-based; conditions: dose 7.5-30 µM, time 24.5 hrs
Mus musculus [13] = assay: Antialzheimer activity against amyloid beta (25 to 35)-induced cognitive deficit ICR mouse model assessed as attenuation of behavioral deficit at 50 mg/kg,po observed after 12 to 15 days of administration by Y maze test; type: functional, organism-based; conditions: time 12-15 day
PC-12 [14] = assay: Neuroprotective activity against amyloid beta (25 to 35)-induced rat PC12 cells assessed as decrease in amyloid beta level at 3.75 to 30 uM incubated for 30 mins followed by amyloid beta (25 to 35) addition and measured after 24 hrs by ELISA; type: functional, cell-based; conditions: dose 3.75-30 µM, time 24.5 hrs
[15] = Cytotoxicity against human HepG2 cells assessed as cell viability at 120 uM incubated for 24 hrs by MTT assay; type: toxicity, cell-based; conditions: read-out: Activity
[16] = Cmax in Sprague-Dawley rat at 60 mg/kg,po measured at 0.25 to 24 hrs post administration by LC-MS/MS analysis; type: ADME, organism-based; design: dose 60 mg/kg, time upper 24 hrs, time lower 0.25 hrs, route po; conditions: in vivo
HUVEC [17] = assay: Cytotoxicity against human HUVEC cells assessed as effect on survival at < 60 uM incubated for 24 hrs by MTT assay; type: toxicity, cell-based
Mus musculus [18] = assay: Antialzheimer activity against amyloid beta (25 to 35)-induced brain injury ICR mouse model assessed as attenuation of pathological change in hippocampal CAl region at 12.5 to 50 mg/kg,po administrated for 21 days by hematoxylin and eosin staining based microscopic analysis; type: functional, organism-based; conditions: dose 12.5-50 mg/kg, time 21.0 day
PC-12 [19] = assay: Neuroprotective activity against amyloid beta (25 to 35)-induced rat PC12 cells assessed as decrease in intracellular ROS level at 7.5 uM incubated for 24 hrs by DCFH-DA staining based flow cytometry assay; type: functional, cell-based
Mus musculus [20] = assay: Antialzheimer activity against amyloid beta (25 to 35)-induced cognitive deficit ICR mouse model assessed as increase in preferential index at 50 mg/kg,po observed after 1 hr of administration by novel object recognition test; type: functional, organism-based
PC-12 [21] = assay: Neuroprotective activity against amyloid beta (25 to 35)-induced rat PC12 cells assessed as decrease in COX-2 expression level at 7.5 to 30 uM preincubated for 30 mins followed by amyloid beta (25 to 35) addition and measured after 24 hrs by western blot assay; type: functional, cell-based; conditions: dose 7.5-30 µM, time 24.5 hrs
[22] = Oral bioavailability in Sprague-Dawley rat at 60 mg/kg measured after 0.25 to 24 hrs post administration by LC-MS/MS analysis; type: ADME, organism-based; conditions: in vivo, time 0.25-24 hrs
Mus musculus [23] = assay: Antialzheimer activity against amyloid beta (25 to 35)-induced cognitive deficit ICR mouse model assessed as increase in discrimination index at 25 mg/kg,po observed after 1 hr of administration by novel object recognition test; type: functional, organism-based
[24] = Cytotoxicity against mouse Neuro2a cells assessed as cell viability at 120 uM incubated for 24 hrs by MTT assay; type: toxicity, cell-based; conditions: Neuro2a (N2a) cells, read-out: Activity
Mus musculus [25] = assay: Antialzheimer activity against amyloid beta (25 to 35)-induced brain injury ICR mouse model assessed as attenuation of pathological change in cerebral cortex at 12.5 to 50 mg/kg,po administrated for 21 days by hematoxylin and eosin staining based microscopic analysis; type: functional, organism-based; conditions: dose 12.5-50 mg/kg, time 21.0 day
PC-12 [26] = assay: Neuroprotective activity against amyloid beta (25 to 35)-induced rat PC12 cells assessed as decrease in IL-1beta expression level at 7.5 to 30 uM preincubated for 30 mins followed by amyloid beta (25 to 35) addition and measured after 24 hrs by western blot assay; type: functional, cell-based; conditions: dose 7.5-30 µM, time 24.5 hrs
Mus musculus [27] = assay: Antialzheimer activity against amyloid beta (25 to 35)-induced cognitive deficit ICR mouse model assessed as increase in preferential index at 50 mg/kg,po observed after 24 hrs of administration by novel object recognition test; type: functional, organism-based
HepG2 [28] = assay: Cytotoxicity against human HepG2 cells assessed as decrease in cell viability at 120 uM incubated for 24 hrs by MTT assay; type: toxicity, cell-based; conditions: hepg2, 24 h
[29] = Toxicity in ICR mouse assessed as pathological changes in liver at 12.5 to 50 mg/kg,po administrated for 20 days by hematoxylin and eosin staining based microscopic analysis; type: organism-based; conditions: in vivo, 480 h, dose 12.5-50 mg/kg, time 20 day
Mus musculus [30] = assay: Antialzheimer activity against amyloid beta (25 to 35)-induced cognitive deficit ICR mouse model assessed as increase in preferential index at 25 mg/kg,po observed after 1 hr of administration by novel object recognition test; type: functional, organism-based
PC-12 [31] = assay: Cytotoxicity against rat PC12 cells assessed as effect on survival at < 60 uM incubated for 24 hrs by MTT assay; type: toxicity, cell-based; conditions: pc-12, 24 h

With `CC1(C)CCC[C@](C)([C@H]2CC[C@]3(C)[C@@H]2[C@H](O)C[C@@H]2[C@@]4(C)CC[C@H](OC(=O)NCc5ccccc5)C(C)(C)[C@@H]4CC[C@]23C)O1` the Papp at 4 h [1] was 261 nm/s, the MRT last [2] was 2.24 h and the Activity [3] was “Non-Toxic”. For the same compound, the Activity (Mus musculus [4]) was “Active”, the Activity (HepG2 [5]) was “Non-Toxic” and the Activity (PC-12 [6]) was “Active”. The Activity (PC-12 [7]) was “Toxic”, the half-life [8] was 0.817 h and the Activity (N2a) was “Non-Toxic”. The Activity (Mus musculus [9]) was “Active”, the Activity (HUVEC [10]) was “Toxic” and the Activity (Mus musculus [11]) was “inactive”. The Activity (PC-12 [12]) was “Active”, the Activity (Mus musculus [13]) was “Active” and the Activity (PC-12 [14]) was “Active”. The viability at 24 h, 120 µM [15] was over 50%, the Cmax [16] was 0.22 µg/mL and the Activity (HUVEC [17]) was “Non-Toxic”. For the same compound, the Activity (Mus musculus [18]) was “Active”, the Activity (PC-12 [19]) was “Active” and the Activity (Mus musculus [20]) was “inactive”. For the same compound, the Activity (PC-12 [21]) was “Active”, the bioavailability [22] was 0.2% and the Activity (Mus musculus [23]) was “inactive”. For the same compound, the viability at 24 h, 120 µM [24] was over 50%, the Activity (Mus musculus [25]) was “Active” and the Activity (PC-12 [26]) was “Active”. The Activity (Mus musculus [27]) was “Active”, the Activity (HepG2 [28]) was “Toxic” and the Activity [29] was “Non-Toxic”. The Activity (Mus musculus [30]) was “inactive” and the Activity (PC-12 [31]) was “Non-Toxic”.

Source: ChEMBL document CHEMBL5247626, “In vitro and in vivo biological evaluation of newly synthesized multi-target 20(R)-panaxadiol derivatives for treating Alzheimer's disease” (Eur J Med Chem, 2022)
